This passage reports remaining activity results from PMC9719519, “Non-classical ferroptosis inhibition by a small molecule targeting PHB2” (Nature Communications, 2022).

What all share (assay): biochemical
Common to all, as to set-up: Eurofins recombinant human kinase profiling, remaining kinase activity as % of control, 10 uM ATP
What all share (settings): ATP 10 uM; read-out: %Ctrl@10 μM

The target of one experiment is BrSK1(h) (Homo sapiens, UniProt Q8TDC3). The text has this: (§1) To rapidly determine the biological target of YL-939, we first tested the activity of YL-939 against a panel of 401 recombinant human protein kinases by using the kinase profiling assay provided by Eurofins, since kinases are often the key components in various signal pathways[35],[36]. […] We then carried out affinity-based proteome profiling assay (ABPP) coupled with bioimaging to identify the biological target of YL-939 (Fig. 4A). To this end, we designed and synthesized a photoaffinity probe, YL-939-1 (Fig. 4A and Supplementary Fig. 5), which is YL-939 attached by a photo-crosslinker (L3) that contains a photo-reactive group diazirine and a clickable alkyne handle.

For the next experiment, the target named is Cdc7/cyclinB1(h) (Homo sapiens, UniProt O00311).
Source text: as §1

The next experiment deals with DDR2(h) (Homo sapiens, UniProt Q16832).
Source text: as §1

The target of a further experiment is EGFR(T790M,L858R)(h) (Homo sapiens, UniProt P00533, L858R/T790M).
Source text: as §1

A further experiment has as its target EphA8(h) (Homo sapiens, UniProt P29322).
Source text: as §1

For the next experiment, the target named is EphB2(h) (Homo sapiens, UniProt P29323).
Source text: as §1

In the next experiment the target is T1, GSK3β(h) (Homo sapiens, UniProt P49841).
T1 construct: gene GSK3B
Source text: as §1

The next experiment has as its target T2, HRI(h) (Homo sapiens, UniProt Q9BQI3).
T2 construct: gene EIF2AK1
Source text: as §1

In another experiment the target is T3, ICK(h) (Homo sapiens, UniProt Q9UPZ9).
T3 construct: gene CILK1
Source text: as §1

Another experiment concerns the target IRAK4(h) (Homo sapiens, UniProt Q9NWZ3).
Source text: as §1

The target in a further experiment is T4, JNK2α2(h) (Homo sapiens, UniProt P45984).
T4 construct: gene MAPK9; isoform alpha2
Source text: as §1

The target in the next experiment is T5, JNK3(h) (Homo sapiens, UniProt P53779).
T5 construct: gene MAPK10
Source text: as §1

Another experiment has as its target T6, MEK1(h) (Homo sapiens, UniProt Q02750).
T6 construct: gene MAP2K1
Source text: as §1

The target of another experiment is T7, MLK1(h) (Homo sapiens, UniProt P80192).
T7 construct: gene MAP3K9
Source text: as §1

For a further experiment, the target named is NEK1(h) (Homo sapiens, UniProt Q96PY6).
Source text: as §1

A further experiment concerns the target PAK6(h) (Homo sapiens, UniProt Q9NQU5).
Source text: as §1

The next experiment concerns the target T8, PKA(h) (Homo sapiens, UniProt P17612).
T8 construct: gene PRKACA
Source text: as §1

The next experiment has as its target T9, PKBα(h) (Homo sapiens, UniProt P31749).
T9 construct: gene AKT1
Source text: as §1

In another experiment the target is T10, PKD3(h) (Homo sapiens, UniProt O94806).
T10 construct: gene PRKD3
Source text: as §1

A further experiment has as its target T11, PRK1(h) (Homo sapiens, UniProt Q16512).
T11 construct: gene PKN1
Source text: as §1

Another experiment has as its target Plk4(h) (Homo sapiens, UniProt O00444).
Source text: as §1

A further experiment concerns the target SIK3(h) (Homo sapiens, UniProt Q9Y2K2).
Source text: as §1

The target of a further experiment is T12, ZAP-70(h) (Homo sapiens, UniProt P43403).
T12 construct: gene ZAP70
Source text: as §1

T4 sequence (P45984 whole entry, canonical isoform): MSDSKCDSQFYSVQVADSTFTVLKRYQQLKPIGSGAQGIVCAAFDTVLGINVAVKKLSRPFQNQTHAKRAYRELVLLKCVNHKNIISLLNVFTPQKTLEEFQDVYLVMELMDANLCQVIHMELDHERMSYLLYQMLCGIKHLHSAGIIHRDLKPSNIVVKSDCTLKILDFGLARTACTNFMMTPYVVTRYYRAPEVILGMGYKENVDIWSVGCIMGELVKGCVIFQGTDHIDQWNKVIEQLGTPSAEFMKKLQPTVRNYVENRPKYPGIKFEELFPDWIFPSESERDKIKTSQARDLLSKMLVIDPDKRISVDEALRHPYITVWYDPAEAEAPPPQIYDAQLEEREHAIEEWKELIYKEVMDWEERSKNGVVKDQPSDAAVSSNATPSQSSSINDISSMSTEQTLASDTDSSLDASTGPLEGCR
T9 sequence (P31749 whole entry): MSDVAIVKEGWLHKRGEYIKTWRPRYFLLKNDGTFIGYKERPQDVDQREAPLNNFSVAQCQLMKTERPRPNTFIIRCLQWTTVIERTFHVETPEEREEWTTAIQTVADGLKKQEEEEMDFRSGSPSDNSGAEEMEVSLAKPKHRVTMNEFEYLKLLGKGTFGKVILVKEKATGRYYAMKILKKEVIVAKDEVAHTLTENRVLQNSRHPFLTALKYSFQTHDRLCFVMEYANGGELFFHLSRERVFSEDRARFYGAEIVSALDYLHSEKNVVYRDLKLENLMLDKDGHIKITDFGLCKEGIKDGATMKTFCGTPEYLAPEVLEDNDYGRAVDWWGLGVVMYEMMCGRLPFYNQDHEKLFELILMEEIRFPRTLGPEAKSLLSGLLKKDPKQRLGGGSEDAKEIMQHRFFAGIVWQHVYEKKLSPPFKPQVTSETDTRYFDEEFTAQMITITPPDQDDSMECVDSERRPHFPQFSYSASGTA
T12 sequence (P43403 whole entry): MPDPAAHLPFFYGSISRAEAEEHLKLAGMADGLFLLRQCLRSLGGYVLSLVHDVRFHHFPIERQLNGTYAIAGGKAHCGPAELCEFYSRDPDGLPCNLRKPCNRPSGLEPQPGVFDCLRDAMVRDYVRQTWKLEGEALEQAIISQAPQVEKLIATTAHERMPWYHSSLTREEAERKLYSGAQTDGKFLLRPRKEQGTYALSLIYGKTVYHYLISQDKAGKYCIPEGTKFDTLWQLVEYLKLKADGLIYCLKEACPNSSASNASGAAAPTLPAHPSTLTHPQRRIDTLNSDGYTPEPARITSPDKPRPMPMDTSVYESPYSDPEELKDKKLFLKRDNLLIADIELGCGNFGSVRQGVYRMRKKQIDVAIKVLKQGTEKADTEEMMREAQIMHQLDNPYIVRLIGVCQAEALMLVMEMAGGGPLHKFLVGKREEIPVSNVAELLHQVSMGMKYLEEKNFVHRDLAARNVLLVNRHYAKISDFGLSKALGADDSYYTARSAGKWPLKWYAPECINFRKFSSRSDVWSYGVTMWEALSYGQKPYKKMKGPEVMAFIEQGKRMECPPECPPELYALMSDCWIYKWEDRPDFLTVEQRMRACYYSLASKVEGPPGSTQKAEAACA
Sequence of EphB2(h) (P29323 whole entry): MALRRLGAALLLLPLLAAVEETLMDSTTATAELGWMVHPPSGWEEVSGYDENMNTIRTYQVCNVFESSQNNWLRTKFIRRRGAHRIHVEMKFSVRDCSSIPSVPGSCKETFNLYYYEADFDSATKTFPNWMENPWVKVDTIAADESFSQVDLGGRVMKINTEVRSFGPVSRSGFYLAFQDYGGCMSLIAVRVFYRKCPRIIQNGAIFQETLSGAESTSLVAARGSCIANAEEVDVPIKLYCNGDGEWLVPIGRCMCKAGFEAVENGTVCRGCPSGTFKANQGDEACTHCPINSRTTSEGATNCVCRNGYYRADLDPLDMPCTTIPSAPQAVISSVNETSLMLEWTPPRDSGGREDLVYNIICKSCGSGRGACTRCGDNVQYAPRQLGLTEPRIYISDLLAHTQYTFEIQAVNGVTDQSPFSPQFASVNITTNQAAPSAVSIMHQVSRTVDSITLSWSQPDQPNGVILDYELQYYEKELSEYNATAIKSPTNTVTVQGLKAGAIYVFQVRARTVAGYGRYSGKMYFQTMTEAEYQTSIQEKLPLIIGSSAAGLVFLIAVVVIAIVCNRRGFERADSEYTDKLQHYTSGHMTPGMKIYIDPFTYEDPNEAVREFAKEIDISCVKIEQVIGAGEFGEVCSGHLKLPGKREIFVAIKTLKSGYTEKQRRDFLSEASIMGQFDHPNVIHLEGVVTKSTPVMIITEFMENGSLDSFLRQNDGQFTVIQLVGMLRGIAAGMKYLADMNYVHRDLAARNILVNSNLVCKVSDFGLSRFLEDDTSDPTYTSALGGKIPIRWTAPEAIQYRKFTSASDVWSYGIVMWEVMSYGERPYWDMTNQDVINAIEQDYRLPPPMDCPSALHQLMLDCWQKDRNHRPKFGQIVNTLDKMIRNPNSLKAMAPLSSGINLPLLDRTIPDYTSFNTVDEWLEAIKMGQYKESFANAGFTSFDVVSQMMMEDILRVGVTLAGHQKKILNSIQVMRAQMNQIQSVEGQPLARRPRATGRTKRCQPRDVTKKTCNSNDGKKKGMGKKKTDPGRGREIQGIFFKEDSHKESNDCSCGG
Sequence of BrSK1(h) (Q8TDC3 whole entry): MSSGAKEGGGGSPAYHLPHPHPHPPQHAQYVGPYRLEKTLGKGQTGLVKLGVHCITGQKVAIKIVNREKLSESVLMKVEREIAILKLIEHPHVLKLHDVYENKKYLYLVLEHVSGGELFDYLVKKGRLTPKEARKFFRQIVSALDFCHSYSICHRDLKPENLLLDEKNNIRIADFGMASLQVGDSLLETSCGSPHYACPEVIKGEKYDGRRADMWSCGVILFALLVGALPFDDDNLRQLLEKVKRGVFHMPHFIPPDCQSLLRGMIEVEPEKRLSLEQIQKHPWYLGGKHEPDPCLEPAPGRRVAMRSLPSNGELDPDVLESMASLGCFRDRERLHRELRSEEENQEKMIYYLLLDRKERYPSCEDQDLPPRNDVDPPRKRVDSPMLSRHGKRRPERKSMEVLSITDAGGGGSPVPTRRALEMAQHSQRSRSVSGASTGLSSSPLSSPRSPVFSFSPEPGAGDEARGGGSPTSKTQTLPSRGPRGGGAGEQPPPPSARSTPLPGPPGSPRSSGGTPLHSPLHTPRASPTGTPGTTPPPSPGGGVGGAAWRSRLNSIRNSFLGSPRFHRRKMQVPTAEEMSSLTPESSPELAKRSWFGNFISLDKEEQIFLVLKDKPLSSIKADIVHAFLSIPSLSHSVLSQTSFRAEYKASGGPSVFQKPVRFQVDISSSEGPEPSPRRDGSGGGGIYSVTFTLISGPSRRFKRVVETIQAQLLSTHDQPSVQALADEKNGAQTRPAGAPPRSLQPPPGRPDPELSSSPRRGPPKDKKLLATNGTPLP
T10 sequence (O94806 whole entry): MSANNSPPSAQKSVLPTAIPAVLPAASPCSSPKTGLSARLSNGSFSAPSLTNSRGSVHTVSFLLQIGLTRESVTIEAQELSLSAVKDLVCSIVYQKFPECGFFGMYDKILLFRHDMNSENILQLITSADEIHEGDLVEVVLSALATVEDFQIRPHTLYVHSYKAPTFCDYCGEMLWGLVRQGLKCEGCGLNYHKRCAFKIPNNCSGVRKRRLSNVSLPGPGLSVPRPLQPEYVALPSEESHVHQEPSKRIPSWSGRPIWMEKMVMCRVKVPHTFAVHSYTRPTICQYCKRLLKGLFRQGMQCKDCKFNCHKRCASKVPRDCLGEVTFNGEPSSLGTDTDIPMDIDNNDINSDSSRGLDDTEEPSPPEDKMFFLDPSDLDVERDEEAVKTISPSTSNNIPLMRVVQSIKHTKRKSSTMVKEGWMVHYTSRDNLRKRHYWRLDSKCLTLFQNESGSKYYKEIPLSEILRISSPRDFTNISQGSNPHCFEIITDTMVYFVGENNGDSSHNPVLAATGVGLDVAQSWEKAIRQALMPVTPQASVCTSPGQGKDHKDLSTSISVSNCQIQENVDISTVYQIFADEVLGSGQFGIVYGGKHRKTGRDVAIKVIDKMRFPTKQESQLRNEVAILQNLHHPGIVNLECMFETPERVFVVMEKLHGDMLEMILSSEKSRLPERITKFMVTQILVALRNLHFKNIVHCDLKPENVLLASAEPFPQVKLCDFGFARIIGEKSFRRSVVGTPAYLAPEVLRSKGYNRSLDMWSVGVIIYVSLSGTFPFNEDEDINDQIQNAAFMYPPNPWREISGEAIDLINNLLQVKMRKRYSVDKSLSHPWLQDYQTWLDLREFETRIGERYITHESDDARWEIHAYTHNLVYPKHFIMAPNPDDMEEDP
T5 sequence (P53779 whole entry): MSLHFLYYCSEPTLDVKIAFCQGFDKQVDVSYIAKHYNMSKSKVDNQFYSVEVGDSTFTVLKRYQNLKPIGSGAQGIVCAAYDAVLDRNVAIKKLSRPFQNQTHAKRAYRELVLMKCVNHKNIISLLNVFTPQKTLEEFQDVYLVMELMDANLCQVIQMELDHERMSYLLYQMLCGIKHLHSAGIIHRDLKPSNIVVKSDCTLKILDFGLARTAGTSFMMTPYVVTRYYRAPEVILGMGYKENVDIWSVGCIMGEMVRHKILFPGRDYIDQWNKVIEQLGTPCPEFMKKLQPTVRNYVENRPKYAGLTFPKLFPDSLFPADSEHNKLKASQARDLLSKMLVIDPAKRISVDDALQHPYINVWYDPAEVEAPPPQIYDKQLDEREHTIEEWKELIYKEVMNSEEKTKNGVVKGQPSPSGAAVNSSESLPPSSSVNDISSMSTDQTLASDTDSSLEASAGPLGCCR

In the case of `C1=C(c2nc(-c3cnn(C4CCNCC4)c3)cn3cc(-c4ccccc4)nc23)CCOC1` [YL-939], the remaining activity at 10 µM at BrSK1(h) was determined as 91%; on Cdc7/cyclinB1(h), 104%; on DDR2(h), 95%; at EGFR(T790M,L858R)(h) it was 91%; on EphA8(h), 76%; at EphB2(h), 81%. Besides, the remaining activity at 10 µM came to 96% at GSK3β(h); 111% on HRI(h); 92% on ICK(h); 96% at IRAK4(h); 72% on JNK2α2(h); 65% at JNK3(h). Moreover, the remaining activity at 10 µM came out at 109% at MEK1(h); 86% on MLK1(h); 105% at NEK1(h); 65% at PAK6(h); 98% at PKA(h); 68% on PKBα(h). The remaining activity at 10 µM came to 87% at PKD3(h); 96% at PRK1(h); 88% on Plk4(h); 84% on SIK3(h); 97% at ZAP-70(h).
